Columns and labels:
[1] = tested on: RNA-12 (fully base paired RNA); assay: Competitive binding assay (2-AP), RNA-12
Description: I and I0 are the observed fluorescence intensity in the presence and absence of 2-AP RNA. Δε is the difference between the fluorescence intensity in the absence and presence of infinite 2-AP RNA. […] EC50 was calculated from Eq. (1). […] The change of fluorescence intensity was fit to Eq. (2):
θ is the percentage of 2-AP RNA bound. [RNA] is the concentration of 2-AP RNA. EC50 is the EC50 of Synucleozid determined in the assay above. [Synucleozid] is the concentration of Synucleozid. Cc is the concentration of competitive RNA. Kd is competitive dissociation constant and A is a constant.

[2] = tested on: construct in which the SNCA 5′ UTR was absent; assay: Luciferase reporter assay, construct lacking SNCA 5′ UTR, SH-SY5Y cells; type: cell-based, human; conditions: cellular
Text: pIRES-Luc-EGFP-puro: The firefly luciferase open reading frame (ORF) was amplified with primers 1 and 2 using pmirGLO-dual-luciferase (Promega, E1330) as a template. The PCR product was then fused with linearized pIRES-EGFP-puro (Addgene plasmid #45567) digested with XhoI and SacI, placing the luciferase ORF upstream of the IRES sequence. pCDH-Luc-EGFP-puro: The firefly luciferase open reading frame (ORF) was amplified with primers 15 and 16 using pmirGLO-dual-luciferase (Promega, E1330) as a template. The PCR product was then fused with linearized pCDH-CB-IRES-copGFP-T2A-Puro digested with BamHI and NotI, placing the luciferase ORF upstream of IRES sequence. Luciferase assay. The effect of Synucleozid treatment on translation from various IRE containing transcripts was determined using luciferase reporter assay. […] Luciferase reporter activity in each lysate was monitored using the dual luciferase reporter assay system kit (Promega. Madison, Wis., USA) according to the manufacturer's instructions. Luminescence from firefly luciferase reaction was measured using a microplate luminometer (Wallac 1420, Perkin Elmer) at 485 nm excitation and 535 nm emission wavelengths. Firefly luciferase reaction was then quenched by adding Stop & Glo reagent, and the internal fluorescence from GFP measured at the same setting was used to normalize luciferase expression. […]

[3] = biological target: RNA-1 (A bulge mutated to a base pair); assay: Competitive binding assay (2-AP), RNA-1
Description: EC50 was calculated from Eq. (1).

[4] = tested on: A-bulge-mutated RNA (fully paired RNA); assay: Thermal melting experiment, fully paired RNA; type: binding
Text: Thermal melting experiment.

APP 5′ UTR = assay: Luciferase reporter assay, APP 5′ UTR, SH-SY5Y cells; type: cell-based, human
SNCA mRNA = assay: Polysome profiling; type: cell-based, human; conditions: 1 μM, 48 h
Description: Polysome profiling. Polysome profiling studies were completed similarly to previously described methods (9, 10). SH-SY5Y cells were treated with DMSO vehicle or Synucleozid (1 μM) at 50% confluency. After 48 h, 100 μg/mL (final concentration) cycloheximide (CHX) was added to dishes, and cells were incubated at 37° C. for 10 min. After two times washing with ice-cold 1×DPBS supplemented with 100 μg/mL CHX, cells were scraped with ice-cold 300 μL 1×DPBS supplemented with 100 μg/mL CHX. Three 100 mm dishes of cells were prepared and combined as one profiling sample. After centrifugation, cell pellets were lysed with 250 μL of ice-cold polysome extraction buffer [10 mM NaCl, 10 mM MgCl2, 10 mM Tris, pH 7.5, 1% Triton X-100, 1% sodium deoxycholate, 1 mM DTT supplemented with […] and 0.2 U/μL RNasin (Promega)]. The lysate was transferred to an ice-cold Eppendorf tube, gently vortexed and centrifuged for 15 min at 13,200 rpm, 4° C. The supernatant was layered onto 10 mL linear 10-50% sucrose gradients containing 20 mM HEPES (pH 7.4), 5 mM MgCl2, 100 mM KCl, […], and 100 µg/mL CHX. The sucrose gradients were centrifuged at 40,000 rpm for 2 h at 4° C. then fractionated using a fraction collector (Brandel Inc.). The absorbance of cytosolic RNA was recorded at 254 nm by an inline UV monitor. A 400 μL aliquot from each fraction was collected. Then, RNA extraction, cDNA synthesis and RT-qPCR were performed as described above.

N=C(N)c1ccc(Nc2ccc(-c3cc4ccc(C(=N)N)cc4[nH]3)cc2)cc1 [Synucleozid A]
competitor RNA concentration needed for recovery of 2-AP emission [1]: > 100 µM
inhibitory effect on luciferase construct lacking SNCA 5′ UTR [2]: No inhibitory effect
Kd [3]: ~20 µM
reduction of avidity compared to the native IRE [3]: 10 fold
effect on thermal stability of A-bulge-mutated RNA [4]: no significant effect
effect on translation of luciferase fused to APP 5′ UTR (APP 5′ UTR): no effect
association of ribosomes with a control RNA (SNCA mRNA): does not affect
decrease of SNCA mRNA associated with active polysomes (SNCA mRNA; SH-SY5Y cells): ~20%
SNCA mRNA associated with incomplete ribosomes (SNCA mRNA; fractions 1-5): increase
